Values of other authors, collected in article PMC6683083, “Lupin Peptide T9 (GQEQSHQDEGVIVR) Modulates the Mutant PCSK9^D374Y Pathway: in vitro Characterization of its Dual Hypocholesterolemic Behavior” (Nutrients, 2019).
Read-outs that look alike come from different tables or passages of the source.

What was measured:
[1] = tested on: PCSK9; conditions: cited from earlier work
Excerpt: It is important to observe that some natural PCSK9 mutations affect its affinity for the LDLR. In particular, the gain of function (GOF) mutant D374Y binds more avidly to the LDLR than the wild-type (WT) PCSK9. The consequence is an approximately tenfold increased capacity of reducing the LDLR protein level. Accordingly, subjects with this PCSK9^D374Y mutation have very high LDL-C levels and are at high risk of atherosclerosis. In light of these observations, PCSK9 is currently considered a new target for the treatment of hypercholesterolemia, and the development of novel PCSK9 inhibitor ... || In this panorama, lupin protein hydrolysates, obtained by treating the proteins with pepsin and trypsin, show synergistic hypocholesterolemic effects through the modulation of both HMGCoAR and PCSK9 targets. […] Furthermore, these lupin hydrolysates impair the protein–protein interaction (PPI) betwe ... || Taking into account all this information, it is possible to affirm that there is an interesting similarity between the hypocholesterolemic behaviors of T9 and P5.

[2] = biological target: T1, HMGCoAR (Homo sapiens, UniProt P04035); parameters: method as in 4 sources, ref [16],[18] = [16]; doi:10.1016/j.jff.2017.02.009; 16. Zanoni C. Aiello G. Arnoldi A. Lammi C. Investigations on the hypocholesterolaemic activity of LILPKHSDAD and LTFPGSAED, two peptides from lupin beta-conglutin: Focus on LDLR and PCSK9 pathways J || [18]; doi:10.1111/jfbc.12524; 18. Lammi C. Zanoni C. Arnoldi A. Aiello G. YDFYPSSTKDQQS (P3), a peptide from lupin protein, absorbed by Caco-2 cells, modulates cholesterol metabolism in HepG2 cells via SREBP-1 activation J. Food B ||| ref [19],[20],[21] = [19]; doi:10.1016/j.jff.2015.02.021; 19. Lammi C. Zanoni C. Arnoldi A. IAVPGEVA, IAVPTGVA, and LPYP, three peptides from soy glycinin, modulate cholesterol metabolism in HepG2 cells through the activation of the LDLR-SREBP2 pathway J. Fu || [20]; PMID 26310992; doi:10.1021/acs.jafc.5b03497; 20. Lammi C. Zanoni C. Vistoli G. Arnoldi A. Two Peptides from Soy β-Conglycinin Induce a Hypocholesterolemic Effect in HepG2 Cells by a Statin-Like Mechanism: Comparative in Vitro and in Silico Model || [21]; PMID 26580610; doi:10.3390/ijms161126029; 21. Lammi C. Zanoni C. Arnoldi A. Three Peptides from Soy Glycinin Modulate Glucose Metabolism in Human Hepatic HepG2 Cells Int. J. Mol. Sci. 2015 16 27362 27370 10.3390/ijms161126029 26580610 PMC4661 ||| ref [6] = [6]; PMID 25690031; doi:10.3390/ijms16024150; 6. Soares R.A. Mendonça S. De Castro L. Menezes A.C. Arêas J.A. Ívini Major Peptides from Amaranth (Amaranthus cruentus) Protein Inhibit HMG-CoA Reductase Activity Int. J. Mol. Sci. 2015 16 4150 4160 ||| ref [4],[16] = [4]; PMID 24972343; doi:10.1021/jf500795b; 4. Lammi C. Zanoni C. Scigliuolo G.M. D’Amato A. Arnoldi A. Lupin Peptides Lower Low-Density Lipoprotein (LDL) Cholesterol through an Up-regulation of the LDL Receptor/Sterol Regulatory Element Bindin || [16]; doi:10.1016/j.jff.2017.02.009; 16. Zanoni C. Aiello G. Arnoldi A. Lammi C. Investigations on the hypocholesterolaemic activity of LILPKHSDAD and LTFPGSAED, two peptides from lupin beta-conglutin: Focus on LDLR and PCSK9 pathways J; conditions: cited from earlier work
T1 construct: purchased Sigma (Sigma-Aldrich, St. Louis, MO, USA)
T1 sequence (P04035 426-888 limits assumed): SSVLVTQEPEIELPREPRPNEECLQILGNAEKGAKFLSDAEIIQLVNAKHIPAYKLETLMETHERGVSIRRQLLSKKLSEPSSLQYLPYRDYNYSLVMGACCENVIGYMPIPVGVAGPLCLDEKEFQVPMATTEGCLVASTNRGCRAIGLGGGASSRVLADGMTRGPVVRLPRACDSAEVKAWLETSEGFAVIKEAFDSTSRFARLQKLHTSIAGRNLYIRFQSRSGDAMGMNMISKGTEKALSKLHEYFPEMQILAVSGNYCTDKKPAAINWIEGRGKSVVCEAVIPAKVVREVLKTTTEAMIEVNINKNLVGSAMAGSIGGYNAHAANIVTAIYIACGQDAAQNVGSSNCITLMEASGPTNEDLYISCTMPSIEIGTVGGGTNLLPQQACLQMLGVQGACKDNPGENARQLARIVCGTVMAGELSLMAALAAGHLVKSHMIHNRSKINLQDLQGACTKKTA

[3] = tested on: LDL uptake by HepG2 cells; conditions: cited from earlier work
Excerpt: (§1) In this panorama, lupin protein hydrolysates, obtained by treating the proteins with pepsin and trypsin, show synergistic hypocholesterolemic effects through the modulation of both HMGCoAR and PCSK9 targets. […] In parallel, we have also predicted by in silico experiments that T9 had the potential capability of inhibiting the HMGCoAR activity.

[4] = tested on: PCSK9-LDLR protein–protein interaction; conditions: ref [15]; cited from earlier work
Excerpt: as §1

[5] = tested on: LDLR in HepG2 cells; conditions: ref [16]; cited from earlier work
Excerpt: In this panorama, lupin protein hydrolysates, obtained by treating the proteins with pepsin and trypsin, show synergistic hypocholesterolemic effects through the modulation of both HMGCoAR and PCSK9 targets. […] Furthermore, these lupin hydrolysates impair the protein–protein interaction (PPI) betwe ... || Taking into account all this information, it is possible to affirm that there is an interesting similarity between the hypocholesterolemic behaviors of T9 and P5.

[6] = tested on: HMGCoAR protein levels; conditions: reference not given; presumably ref [16]; cited from earlier work
Excerpt: (§2) Taking into account all this information, it is possible to affirm that there is an interesting similarity between the hypocholesterolemic behaviors of T9 and P5.

[7] = tested on: HNF-1α; conditions: ref [16]; cited from earlier work
Excerpt: as §2

[8] = tested on: SREBP-2 transcription factor; conditions: ref [16]; cited from earlier work
Excerpt: as §2

[9] = soybean glycinin peptides, ref [19],[20],[21], read-out: IC50, HMGCoAR activity
[10] = lupin β-conglutin peptides (pepsin), in vitro, ref [16],[18], read-out: IC50, HMGCoAR activity

COc1ccc2cc3[n+](cc2c1OC)CCc1cc2c(cc1-3)OCO2 [berberine]
PCSK9 pathway (in words) ([1]; ref [14]): modulate the PCSK9 pathway

IAVPGEVA [soybean peptide from glycinin hydrolysis]
IC50 [2, 9]: 222 µM

IAVPTGVA [soybean peptide from glycinin hydrolysis]
IC50 [2, 9]: 247 µM

LILPKHSDAD [P5, absorbable peptide deriving from hydrolysis of lupin β-conglutin with pepsin]
IC50 [2, 10]: 147 µM
ability of HepG2 cells to clear / absorb extracellular LDL (in words) ([3]; HepG2 cells, ref [15]): increased ability of HepG2 cells to clear extracellular LDL
capacity of HepG2 cells to clear LDL (in words) ([3]; ref [16]): enhanced capacity of HepG2 cells to clear LDL from the extracellular space
effect on PPI between PCSK9 and LDLR (in words) [4]: able to affect the PPI between PCSK9 and the LDLR
LDLR protein levels (in words) [5]: increase of the LDLR protein levels
HMGCoAR protein levels (in words) [6]: does not diminish the HMGCoAR protein levels
HNF-1α level (in words) [7]: decrease of HNF-1α
SREBP-2 transcription factor activation (in words) [8]: augmentation of the SREBP-2 transcription factor activation
PCSK9-WT protein level (in words) ([1]; ref [16]): decrease of PCSK9-WT protein level
selectivity, PCSK9-WT pathway modulation (in words) ([1]; ref [16]): selective toward the PCSK9-WT pathway modulation

LPYP [soybean peptide from glycinin hydrolysis]
IC50 [2, 9]: 300 µM

LTFPGSAED [P7, absorbable peptide deriving from hydrolysis of lupin β-conglutin with pepsin]
IC50 [2, 10]: 68.4 µM

VGVL
IC50 ([2]; amaranth peptide, ref [6], read-out: concentration inhibiting HMGCoAR by 50%): 51.9 µM
HMGCoAR inhibition (in words) ([2]; amaranth protein hydrolysis peptides, ref [6]): direct inhibition of the reductase activity

YDFYPSSTKDQQS [P3, absorbable peptide deriving from hydrolysis of lupin β-conglutin with pepsin]
IC50 [2, 10]: 70 µM

YVVNPDNNEN [soybean peptide from β-conglycinin]
IC50 ([2]; soybean β-conglycinin peptides, ref [19],[20],[21], read-out: IC50, HMGCoAR activity): 200 µM
